Source: US8883782B2, “Spiro-tetracyclic ring compounds as beta-secretase modulators and methods of use” (Amgen Inc., priority 2010, dated 2014)
Where two headings read alike, the source gives them in different places.

How the values were obtained:
[1] = biological target: Beta Secretase enzyme (BACE) (Homo sapiens, UniProt P56817); test: In vitro enzymatic BACE FRET (fluorescence resonance energy transfer) assay; type: biochemical
Method in brief: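 Fluorescence read after Tris quench to neutral pH. Reaction: 50 nM fluorophore/quencher peptide substrate, 1 h, in 0.05 M acetate pH 4.2, 10% DMSO final, 100 uM genapol.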

[2] = test system: Aβ40 in conditioned medium of cells stably expressing Amyloid Precursor Protein (APP); test: In vitro BACE cell-based assay (Aβ40 in conditioned medium, sandwich ELISA); conditions: Homo sapiens
Method in brief: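 Secreted Aβ40 is captured with pAb40 and detected with biotinylated 6E10, read by europium time-resolved fluorescence. IC50 comes from percent inhibition versus concentration.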

[3] = average IC50, enzyme assay, read-out: BACE 1 FRET assay
[4] = HEK293, average IC50, read-out: HEK cell assay
[5] = HEK293, average IC50, HEK cells, read-out: HEK cell assay

Beta Secretase enzyme (BACE), sequence (P56817 46-501, species assumed): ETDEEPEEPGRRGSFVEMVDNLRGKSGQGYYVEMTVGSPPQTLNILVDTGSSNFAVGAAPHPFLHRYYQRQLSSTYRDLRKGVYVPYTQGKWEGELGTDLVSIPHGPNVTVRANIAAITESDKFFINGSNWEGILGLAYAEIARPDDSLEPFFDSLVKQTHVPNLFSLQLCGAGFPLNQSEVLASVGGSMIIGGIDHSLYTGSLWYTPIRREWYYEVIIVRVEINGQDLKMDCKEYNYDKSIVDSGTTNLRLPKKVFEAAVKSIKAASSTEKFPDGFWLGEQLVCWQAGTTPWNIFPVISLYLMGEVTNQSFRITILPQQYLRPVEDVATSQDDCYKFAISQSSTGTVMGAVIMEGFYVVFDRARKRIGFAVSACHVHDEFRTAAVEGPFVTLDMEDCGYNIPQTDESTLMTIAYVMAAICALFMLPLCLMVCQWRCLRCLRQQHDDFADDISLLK

Structure (SMILES): CC1(C)CC(c2cc3c(cn2)Oc2ccc(-c4cncc(F)c4)cc2[C@@]32COC(N)=N2)=CCO1 [Example 371, (5S)-3-(2,2-dimethyl-3,6-dihydro-2H-pyran-4-yl)-7-(5-fluoro-3-pyridinyl)spiro[chromeno[2,3-c]pyridine-5,4′-[1,3]oxazol]-2′-amine]
- IC50 [1, 3]: 0.002 µM
- IC50 [2, 4]: 0.0107 µM

Structure (SMILES): CC(C)(C)/C=C/c1cc2c(cn1)Oc1ccc(-c3cncc(F)c3)cc1[C@@]21COC(N)=N1 [Example 372, (5S)-3-((1E)-3,3-dimethyl-1-buten-1-yl)-7-(5-fluoro-3-pyridinyl)spiro[chromeno[2,3-c]pyridine-5,4′-[1,3]oxazol]-2′-amine]
- IC50 [1, 3]: 0.0008 µM
- IC50 [2, 4]: 0.0149 µM

Structure (SMILES): NC1=N[C@@]2(CO1)c1cc(-c3cncc(F)c3)ccc1Oc1cnc(-c3cncc(F)c3)cc12 [Example 373, (5S)-3,7-bis(5-fluoro-3-pyridinyl)spiro[chromeno[2,3-c]pyridine-5,4′-[1,3]oxazol]-2′-amine]
- IC50 [1, 3]: 0.0022 µM
- IC50 [2, 4]: 0.0228 µM

Structure (SMILES): NC1=N[C@@]2(CO1)c1cc(-c3cncc(F)c3)ccc1Oc1cnc(-c3ccnc(F)c3)cc12 [Example 376, (5S)-3-(2-fluoro-4-pyridinyl)-7-(5-fluoro-3-pyridinyl)spiro[chromeno[2,3-c]pyridine-5,4′-[1,3]oxazol]-2′-amine]
- IC50 [1, 3]: 0.0026 µM
- IC50 [2, 4]: 0.033 µM

Structure (SMILES): CC1(C)C[C@H](c2cc3c(cn2)Oc2ccc(-c4cccnc4F)cc2[C@@]32COC(N)=N2)CCO1 [Example 377, (5S)-3-((4R)-2,2-dimethyltetrahydro-2H-pyran-4-yl)-7-(2-fluoro-3-pyridinyl)spiro[chromeno[2,3-c]pyridine-5,4′-[1,3]oxazol]-2′-amine]
- IC50 [1, 3]: 0.0059 µM
- IC50 [2, 4]: 0.0294 µM

Structure (SMILES): CC1(C)C[C@@H](c2cc3c(cn2)Oc2ccc(-c4cccnc4F)cc2[C@@]32COC(N)=N2)CCO1 [Example 378, (5S)-3-((4S)-2,2-dimethyltetrahydro-2H-pyran-4-yl)-7-(2-fluoro-3-pyridinyl)spiro[chromeno[2,3-c]pyridine-5,4′-[1,3]oxazol]-2′-amine]
- IC50 [1, 3]: 0.0043 µM
- IC50 [2, 4]: 0.0264 µM

Structure (SMILES): CC1(C)C[C@@H](c2cc3c(cn2)Oc2ccc(-c4ccc(F)nc4)cc2[C@@]32COC(N)=N2)CCO1 [Example 379, (5S)-3-((4S)-2,2-dimethyltetrahydro-2H-pyran-4-yl)-7-(6-fluoro-3-pyridinyl)spiro[chromeno[2,3-c]pyridine-5,4′-[1,3]oxazol]-2′-amine]
- IC50 [1, 3]: 0.0232 µM
- IC50 [2, 4]: 0.176 µM

Structure (SMILES): CC1(C)C[C@@H](c2cc3c(cn2)Oc2ccc(-c4cncc(F)c4)cc2[C@@]32COC(N)=N2)CCO1 [Example 380, (5S)-3-((4S)-2,2-dimethyltetrahydro-2H-pyran-4-yl)-7-(5-fluoro-3-pyridinyl)spiro[chromeno[2,3-c]pyridine-5,4′-[1,3]oxazol]-2′-amine]
- IC50 [1, 3]: 0.0302 µM
- IC50 [2, 4]: 0.101 µM

Structure (SMILES): NC1=N[C@@]2(CO1)c1cc(-c3cncc(F)c3)ccc1Oc1cnc([C@@H]3CCCCO3)cc12 [Example 381, (5S)-7-(5-fluoro-3-pyridinyl)-3-((2S)-tetrahydro-2H-pyran-2-yl)spiro[chromeno[2,3-c]pyridine-5,4′-[1,3]oxazol]-2′-amine]
- IC50 [1, 3]: 0.0073 µM
- IC50 [2, 4]: 0.0626 µM

Structure (SMILES): NC1=N[C@@]2(CO1)c1cc(-c3cccnc3F)ccc1Oc1cnc([C@@H]3CCCOC3)cc12 [Example 382, (5S)-7-(2-fluoro-3-pyridinyl)-3-((3S)-tetrahydro-2H-pyran-3-yl)spiro[chromeno[2,3-c]pyridine-5,4′-[1,3]oxazol]-2′-amine]
- IC50 ([1]; BACE 1 FRET assay (uM), average IC50, enzyme assay): 0.0113 µM
- IC50 ([2]; HEK293, read-out: HEK cell assay (uM)): 0.123 µM

Structure (SMILES): CC(C)(C)/C=C/c1ccc2c(c1)[C@]1(COC(N)=N1)c1cc(Cl)ncc1O2 [Example 383, (5R)-3-chloro-7-((1E)-3,3-dimethyl-1-buten-1-yl)spiro[chromeno[2,3-c]pyridine-5,4′-[1,3]oxazol]-2′-amine]
- IC50 [1, 3]: 0.622 µM
- IC50 [2, 5]: 2.56 µM

Structure (SMILES): CC(C)(C)/C=C/c1ccc2c(c1)[C@]1(COC(N)=N1)c1cc(-c3cncnc3)ncc1O2 [Example 384, (5R)-7-((1E)-3,3-dimethyl-1-buten-1-yl)-3-(5-pyrimidinyl)spiro[chromeno[2,3-c]pyridine-5,4′-[1,3]oxazol]-2′-amine]
- IC50 [1, 3]: 0.004 µM
- IC50 [2, 5]: 0.084 µM

Structure (SMILES): NC1=N[C@@]2(CO1)c1cc(-c3cccnc3F)ccc1Oc1cnc(C3=CCCCC3)cc12 [Example 386, (5S)-3-(1-cyclohexen-1-yl)-7-(2-fluoro-3-pyridinyl)spiro[chromeno[2,3-c]pyridine-5,4′-[1,3]oxazol]-2′-amine]
- IC50 [1, 3]: 0.0004 µM
- IC50 [2, 5]: 0.0111 µM

Structure (SMILES): N#Cc1ncccc1-c1ccc2c(c1)[C@@]1(COC(N)=N1)c1cc(Cl)ncc1O2 [Example 387, 3-((5S)-2′-amino-3-chlorospiro[chromeno[2,3-c]pyridine-5,4′-[1,3]oxazol]-7-yl)-2-pyridinecarbonitrile]
- IC50 [1, 3]: 0.672 µM
- IC50 [2, 5]: 10 µM

Structure (SMILES): NC1=N[C@@]2(CO1)c1cc(-c3cccnc3F)ccc1Oc1cnc(C3CCCCC3)cc12 [Example 388, (5S)-3-cyclohexyl-7-(2-fluoro-3-pyridinyl)spiro[chromeno[2,3-c]pyridine-5,4′-[1,3]oxazol]-2′-amine]
- IC50 [1, 3]: 0.0029 µM
- IC50 [2, 5]: 0.107 µM

Structure (SMILES): N#Cc1ncccc1-c1ccc2c(c1)[C@@]1(COC(N)=N1)c1cc(C3=CCOCC3)ncc1O2 [Example 389, 3-((5S)-2′-amino-3-(3,6-dihydro-2H-pyran-4-yl)spiro[chromeno[2,3-c]pyridine-5,4′-[1,3]oxazol]-7-yl)-2-pyridinecarbonitrile]
- IC50 [1, 3]: 0.0111 µM
- IC50 [2, 5]: 0.0684 µM

Structure (SMILES): NC1=N[C@@]2(CO1)c1cc(-c3cnccc3F)ccc1Oc1cnc(Cl)cc12 [Example 390, (5S)-3-chloro-7-(4-fluoro-3-pyridinyl)spiro[chromeno[2,3-c]pyridine-5,4′-[1,3]oxazol]-2′-amine]
- IC50 [1, 3]: 0.102 µM
- IC50 [2, 5]: 0.64 µM

Structure (SMILES): NC1=N[C@@]2(CO1)c1cc(-c3cnccc3F)ccc1Oc1cnc(C3=CCOCC3)cc12 [Example 391, (5S)-3-(3,6-dihydro-2H-pyran-4-yl)-7-(4-fluoro-3-pyridinyl)spiro[chromeno[2,3-c]pyridine-5,4′-[1,3]oxazol]-2′-amine]
- IC50 ([1]; BACE 1 FRET assay (uM)): 0.0007 µM
- IC50 ([2]; HEK293, read-out: HEK cell assay (uM), average IC50, HEK cells): 0.0058 µM

Structure (SMILES): NC1=N[C@]2(CO1)c1cc(-c3ccnc(F)c3)ccc1Oc1cnc(Cl)cc12 [Example 392, (5R)-3-chloro-7-(2-fluoro-4-pyridinyl)spiro[chromeno[2,3-c]pyridine-5,4′-[1,3]oxazol]-2′-amine]
- IC50 [1, 3]: 5.54 µM
- IC50 [2, 5]: 10 µM

Structure (SMILES): NC1=N[C@]2(CO1)c1cc(-c3ccnc(F)c3)ccc1Oc1cnc(-c3cncnc3)cc12 [Example 393, (5R)-7-(2-fluoro-4-pyridinyl)-3-(5-pyrimidinyl)spiro[chromeno[2,3-c]pyridine-5,4′-[1,3]oxazol]-2′-amine]
- IC50 [1, 3]: 0.0633 µM
- IC50 [2, 5]: 0.224 µM

Structure (SMILES): NC1=N[C@@]2(CO1)c1cc(-c3ccc(F)cc3)ccc1Oc1cnc(C3=CCOCC3)cc12 [Example 394, (5S)-3-(3,6-dihydro-2H-pyran-4-yl)-7-(4-fluorophenyl)spiro[chromeno[2,3-c]pyridine-5,4′-[1,3]oxazol]-2′-amine]
- IC50 [1, 3]: 0.0094 µM
- IC50 [2, 5]: 0.138 µM

Structure (SMILES): NC1=N[C@@]2(CO1)c1cc(-c3ccc(F)cc3)ccc1Oc1cnc(-c3ccnc(F)c3)cc12 [Example 395, (5S)-7-(4-fluorophenyl)-3-(2-fluoro-4-pyridinyl)spiro[chromeno[2,3-c]pyridine-5,4′-[1,3]oxazol]-2′-amine]
- IC50 [1, 3]: 0.0237 µM
- IC50 [2, 5]: 0.335 µM

Structure (SMILES): NC1=N[C@@]2(CO1)c1cc(-c3ccc(F)cc3)ccc1Oc1cnc(-c3cncnc3)cc12 [Example 396, (5S)-7-(4-fluorophenyl)-3-(5-pyrimidinyl)spiro[chromeno[2,3-c]pyridine-5,4′-[1,3]oxazol]-2′-amine]
- IC50 [1, 3]: 0.136 µM
- IC50 [2, 5]: 1.08 µM

Structure (SMILES): NC1=N[C@@]2(CO1)c1cc(-c3cccnc3F)ccc1Oc1cnc(/C=C/C3CC3)cc12 [Example 401, (5S)-3-((E)-2-cyclopropylethenyl)-7-(2-fluoro-3-pyridinyl)spiro[chromeno[2,3-c]pyridine-5,4′-[1,3]oxazol]-2′-amine]
- IC50 [1, 3]: 0.0044 µM
- IC50 [2, 5]: 0.0449 µM

Structure (SMILES): CN(C)c1cc2c(cn1)Oc1ccc(-c3cccnc3)cc1[C@@]21COC(N)=N1 [Example 403, (5S)-N~3~,N~3~-dimethyl-7-(3-pyridinyl)spiro[chromeno[2,3-c]pyridine-5,4′-[1,3]oxazole]-2′,3-diamine]
- IC50 [1, 3]: 0.043 µM
- IC50 [2, 5]: 0.111 µM

Structure (SMILES): NC1=N[C@@]2(CO1)c1cc(-c3cccnc3)ccc1Oc1cnc(NCC(F)(F)F)cc12 [Example 404, (5S)-7-(3-pyridinyl)-N~3~-(2,2,2-trifluoroethyl)spiro[chromeno[2,3-c]pyridine-5,4′-[1,3]oxazole]-2′,3-diamine]
- IC50 [1, 3]: 0.0313 µM
- IC50 [2, 5]: 0.163 µM

Structure (SMILES): CC1(C#Cc2cc3c(cn2)Oc2ccc(-c4cccnc4F)cc2[C@@]32COC(N)=N2)COC1 [Example 405, (5S)-7-(2-fluoro-3-pyridinyl)-3-((3-methyl-3-oxetanyl)ethynyl)spiro[chromeno[2,3-c]pyridine-5,4′-[1,3]oxazol]-2′-amine]
- IC50 [1, 3]: 0.0014 µM
- IC50 [2, 5]: 0.0111 µM

Structure (SMILES): COc1ncc(-c2ccc3c(c2)[C@@]2(COC(N)=N2)c2cc(/C=C/C(C)(C)C)ncc2O3)cn1 [Example 406, (5S)-3-((1E)-3,3-dimethyl-1-buten-1-yl)-7-(2-methoxy-5-pyrimidinyl)spiro[chromeno[2,3-c]pyridine-5,4′-[1,3]oxazol]-2′-amine]
- IC50 [1, 3]: 0.183 µM
- IC50 [2, 5]: 0.712 µM
